# Source: patent publication US20250122174A1 (Shenzhen Yuanli Shenwan Innovative Medicine Co., Ltd., priority 2022, published 2025)
# Target: HPK1 (Homo sapiens (Human), UniProt Q92918)
# Test: HPK1 Inhibition Assay (ADP-Glo kinase assay)
# Type: biochemical
# Conditions: ATP 10 μM
# How it was run: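 ADP-Glo luminescence read-out after 1 h room-temperature kinase reaction with 10 μM ATP and 0.1 μg/ml MBP. Recombinant human HPK1 at 7.5 ng/μl; buffer 40 mM Tris pH 7.5, 20 mM MgCl2. Compounds serially diluted 5-fold over 10 points from 10 mM DMSO stock.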
# Chain of HPK1 (Q92918 1-346 limits assumed): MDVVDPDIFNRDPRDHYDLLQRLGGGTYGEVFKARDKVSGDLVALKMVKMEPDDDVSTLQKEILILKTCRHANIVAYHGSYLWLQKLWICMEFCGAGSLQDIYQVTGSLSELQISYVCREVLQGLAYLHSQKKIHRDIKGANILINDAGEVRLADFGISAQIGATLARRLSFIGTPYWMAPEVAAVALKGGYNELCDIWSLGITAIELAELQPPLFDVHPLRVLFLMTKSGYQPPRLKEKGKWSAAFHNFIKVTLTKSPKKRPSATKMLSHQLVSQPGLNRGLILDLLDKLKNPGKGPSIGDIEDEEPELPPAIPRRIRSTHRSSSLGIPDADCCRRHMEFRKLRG
row,IC50 [µM],SMILES
1,< 0.1,"C[C@H]1CN(c2c(NC(=O)c3ccc(=O)n(-c4c(F)cccc4F)n3)ccc3c2cnn3C2CCOCC2)C[C@@H]1N [Example 273, N-(4-((3R,4S)-3-amino-4-methylpyrrolidin-1-yl)-1-(tetrahydro-2H-pyran-4-yl)-1H-indazol-5-yl)-1-(2,6-difluorophenyl)-6-oxo-1,6-dihydropyridazine-3-carboxamide]"
2,< 0.1,"Cc1nc2c(N3C[C@H]4C[C@@H]3CN4)c(NC(=O)c3ccc(=O)n(-c4c(F)cccc4F)n3)ccc2n1C [Example 80, N-(4-((1R,4R)-2,5-diazabicyclo[2.2.1]heptan-2-yl)-1,2-dimethyl-1H-benzo[d]imidazol-5-yl)-1-(2,6-difluorophenyl)-6-oxo-1,6-dihydropyridazine-3-carboxamide]"
3,< 0.1,"Cc1nc2c(N3C[C@H](N)C4(CC4)C3)c(NC(=O)c3ccc(=O)n(-c4c(F)cccc4F)n3)ccc2n1[C@H]1CCOC1 [Example 152, N-(4-((R)-7-amino-5-azaspiro[2.4]heptan-5-yl)-2-methyl-1-((S)-tetrahydrofuran-3-yl)-1H-benzo[d]imidazol-5-yl)-1-(2,6-difluorophenyl)-6-oxo-1,6-dihydropyridazine-3-carboxamide]"
4,< 0.1,"CC(C)n1nc2c(F)cc(NC(=O)c3ccc(=O)n(-c4c(F)cccc4F)n3)c(N3CC[C@@H](N)C3)c2c1Cl [Example 223, (R)-N-(4-(3-aminopyrrolidin-1-yl)-3-chloro-7-fluoro-2-isopropyl-2H-indazol-5-yl)-1-(2,6-difluorophenyl)-6-oxo-1,6-dihydropyridazine-3-carboxamide]"
5,< 0.1,"Cn1c(C(C)(C)C)nc2c(N3CC[C@@H](O)C3)c(NC(=O)c3ccc(=O)n(-c4c(F)cccc4F)n3)ccc21 [Example 102, (R)-N-(4-(2-tert-butyl)-4-(3-hydroxypyrrolidin-1-yl)-1-methyl-1H-benzo 112 midazolezol-5-yl)-1-(2,6-difluorophenyl)-6-oxo-1,6-dihydropyridazine-3-carboxamide]"
6,< 0.1,"CC(C)c1nc2c(N3C[C@@H](C)[C@@H](N)C3)c(NC(=O)c3ccc(=O)n(-c4c(F)cccc4F)n3)ccc2n1C [Example 110, N-(4-((3R,4R)-3-amino-4-methylpyrrolidin-1-yl)-2-isopropyl-1-methyl-1H-benzo[d]imidazol-5-yl)-1-(2,6-difluorophenyl)-6-oxo-1,6-dihydropyridazine-3-carboxamide]"
7,< 0.1,"N#Cc1ccncc1-c1ccc(NC(=O)c2ccc(=O)n(-c3c(F)cccc3F)n2)c(N2CCNCC2)c1 [Example 342, N-(4-(4-cyanopyridin-3-yl)-2-(piperazin-1-yl)phenyl)-1-(2,6-difluorophenyl)-6-oxo-1,6-dihydropyridazine-3-carboxamide]"
8,< 0.1,"CC(C)c1nc2c(N3CCC[C@H]3CN)c(NC(=O)c3ccc(=O)n(-c4c(F)cccc4F)n3)ccc2n1C [Example 134, (S)-N-(4-(2-(aminomethyl)pyrrolidin-1-yl)-2-isopropyl-1-methyl-1H-benzo[d]imidazol-5-yl)-1-(2,6-difluorophenyl)-6-oxo-1,6-dihydropyridazine-3-carboxamide]"
9,< 0.1,"Cn1c(C(C)(C)C(F)(F)F)nc2c(N3CC[C@@H](N)C3)c(NC(=O)c3ccc(=O)n(-c4c(F)cccc4F)n3)ccc21 [Example 158, (R)-N-(4-(3-aminopyrrolidin-1-yl)-1-methyl-2-(1,1,1-trifluoro-2-methylpropan-2-yl)-1H-benzo[d]imidazol-5-yl)-1-(2,6-difluorophenyl)-6-oxo-1,6-dihydropyridazine-3-carboxamide]"
10,< 0.1,"C[C@@H]1CN(c2c(NC(=O)c3ccc(=O)n(-c4c(F)cccc4F)n3)ccc3nn(C4CCCC4)cc23)C[C@@H]1N [Example 333, N-(4-((3R,4R)-3-amino-4-methylpyrrolidin-1-yl)-2-cyclopentyl-2H-indazol-5-yl)-1-(2,6-difluorophenyl)-6-oxo-1,6-dihydropyridazine-3-carboxamide]"
11,< 0.1,"Cc1nc2c(N3CCC[C@H]3CN)c(NC(=O)c3ccc(=O)n(-c4c(F)cccc4F)n3)ccc2n1C [Example 93, (S)-N-(4-(2-(aminomethyl)pyrrolidin-1-yl)-1,2-dimethyl-1H-benzo[d]imidazol-5-yl)-1-(2,6-difluorophenyl)-6-oxo-1,6-dihydropyridazine-3-carboxamide]"
12,< 0.1,"NC1CCN(c2c(NC(=O)c3ccc(=O)n(-c4c(F)cccc4F)n3)ccc3c2cnn3[C@H]2CCOC2)CC1 [Example 266, (S)-N-(4-(4-aminopiperidin-1-yl)-1-(tetrahydrofuran-3-yl)-1H-indazol-5-yl)-1-(2,6-difluorophenyl)-6-oxo-1,6-dihydropyridazine-3-carboxamide]"
